SMILES strings stand for the structures.

Here are results for 30 compounds from ChEMBL document CHEMBL1126157, “QSAR analyses of the substituted indanone and benzylpiperidine rings of a series of indanone-benzylpiperidine inhibitors of acetylcholinesterase” (J Med Chem, 1992).

Assay [1] deals with T1, Acetylcholinesterase (Homo sapiens, UniProt P22303).
Description: Inhibition of acetylcholinesterase.
The target in assay [2] is T1, Acetylcholinesterase. The source holds these as a separate data set.
Assay [3] addresses T1, Acetylcholinesterase. The source holds these as a separate data set.
In assay [4] the target is T1, Acetylcholinesterase. This is another data set of the same source.
Description: Inhibition of acetylcholinesterase.

T1 sequence (P22303 whole entry): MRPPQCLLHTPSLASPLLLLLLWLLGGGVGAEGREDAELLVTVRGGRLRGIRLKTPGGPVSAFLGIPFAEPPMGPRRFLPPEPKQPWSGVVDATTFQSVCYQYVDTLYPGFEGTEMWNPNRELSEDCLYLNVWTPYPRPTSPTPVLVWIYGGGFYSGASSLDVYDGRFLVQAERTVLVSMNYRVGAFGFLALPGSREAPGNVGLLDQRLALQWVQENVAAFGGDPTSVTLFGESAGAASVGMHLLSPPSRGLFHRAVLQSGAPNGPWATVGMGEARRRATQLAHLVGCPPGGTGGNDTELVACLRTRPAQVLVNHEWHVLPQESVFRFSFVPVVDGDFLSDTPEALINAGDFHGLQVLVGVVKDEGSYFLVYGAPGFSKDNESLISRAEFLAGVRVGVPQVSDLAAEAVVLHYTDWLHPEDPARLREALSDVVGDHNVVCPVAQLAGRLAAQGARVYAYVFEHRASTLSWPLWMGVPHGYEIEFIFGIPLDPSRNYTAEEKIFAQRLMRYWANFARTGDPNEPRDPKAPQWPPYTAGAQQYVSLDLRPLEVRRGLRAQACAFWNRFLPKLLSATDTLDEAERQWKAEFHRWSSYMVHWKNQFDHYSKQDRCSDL

Turning to `COc1cc2c(c(OC)c1)C(=O)C(C)C2` (stereo not given), the values for the IC50 against Acetylcholinesterase [1] and against Acetylcholinesterase [2] were 0.0251 µM and 0.38 µM, respectively.
For the compound `COc1cc2c(cc1OC(C)C)CC(C)C2=O` (stereo not given), the IC50 at Acetylcholinesterase [1] was 0.00891 µM; on Acetylcholinesterase [2], 0.38 µM.
In the case of `COc1cc2c(cc1OC)C(=O)C(C)C2` (stereo not given), the IC50 on Acetylcholinesterase [1] is 0.00525 µM; at Acetylcholinesterase [2], 0.38 µM.
The like results for `CC1Cc2ccccc2C1=O` (stereo not given) were, in that order, 0.148 µM and 0.38 µM.
On the same counts, the results for `COc1ccc2c(c1OC)CC(C)C2=O` (stereo not given) are 0.02 µM and 0.38 µM.
With `CC1Cc2ccc(F)cc2C1=O` (stereo not given), the figures for the concentration for half-maximal inhibition (IC50) against Acetylcholinesterase [1] and against Acetylcholinesterase [2] were 0.2 µM and 0.38 µM, respectively.
`COc1cc2c(cc1O)CC(C)C2=O` (stereo not given): the IC50 on Acetylcholinesterase [1] and on Acetylcholinesterase [2] was 0.38 µM in each case.
Turning to `COc1cc(C)cc(OC)c1OC`, the IC50 at Acetylcholinesterase [3] and on Acetylcholinesterase [4] was 4.9 µM throughout.
Turning to `Cc1ccc2c(c1)C(=O)C(C)C2` (stereo not given), the IC50 on Acetylcholinesterase [1] is 0.0692 µM; on Acetylcholinesterase [2] it was 0.38 µM.
As for `CCOc1cc2c(cc1OCC)C(=O)C(C)C2` (stereo not given), the IC50 is 0.00631 µM against Acetylcholinesterase [1] and 0.38 µM on Acetylcholinesterase [2].
For `COc1ccc(C)cc1OC`, the IC50 was 4.9 µM on Acetylcholinesterase [3] and 3.98 µM against Acetylcholinesterase [4].
Take `Cc1cccc(F)c1`: the IC50 was 4.9 µM at Acetylcholinesterase [3] and 0.001 µM at Acetylcholinesterase [4].
As to `Cc1ccc(F)cc1`, the IC50 against Acetylcholinesterase [3] is 4.9 µM; against Acetylcholinesterase [4] it was 0.00955 µM.
As to `COc1ccc2c(c1)C(=O)C(C)C2` (stereo not given), the IC50 against Acetylcholinesterase [1] is 0.0813 µM; against Acetylcholinesterase [2], 0.38 µM.
Regarding `COc1cc2c(cc1O)C(=O)C(C)C2` (stereo not given), the IC50 is 0.00132 µM at Acetylcholinesterase [1] and 0.38 µM at Acetylcholinesterase [2].
As for `COc1cccc(C)c1`, the IC50 on Acetylcholinesterase [3] was 4.9 µM; on Acetylcholinesterase [4] it was 0.219 µM.
`COc1ccc2c(c1OC)C(=O)C(C)C2` (stereo not given): the IC50 was 0.0871 µM against Acetylcholinesterase [1] and 0.38 µM at Acetylcholinesterase [2].
On to `Cc1ccccc1F`, for which the IC50 against Acetylcholinesterase [3] is 4.9 µM; on Acetylcholinesterase [4] it was 0.00955 µM.
Consider `Cc1cccc2c1CC(C)C2=O` (stereo not given), for which the IC50 at Acetylcholinesterase [1] is 0.00708 µM; on Acetylcholinesterase [2] it was 0.38 µM.
Turning to `COc1cccc2c1CC(C)C2=O` (stereo not given), the IC50 against Acetylcholinesterase [1] was 0.012 µM; at Acetylcholinesterase [2] it was 0.38 µM.
Consider `CC1Cc2cc3c(cc2C1=O)OCO3` (stereo not given), for which the half-maximal inhibitory concentration (IC50) is 0.0229 µM against Acetylcholinesterase [1] and 0.38 µM against Acetylcholinesterase [2].
Regarding `COc1ccc(OC)c2c1CC(C)C2=O` (stereo not given), the IC50 against Acetylcholinesterase [1] is 0.0363 µM; against Acetylcholinesterase [2], 0.38 µM.
Consider `COc1cc2c(c(OC)c1OC)C(=O)C(C)C2` (stereo not given), for which the IC50 was 0.0132 µM on Acetylcholinesterase [1] and 0.38 µM on Acetylcholinesterase [2].
Turning to `Cc1ccc([N+](=O)[O-])cc1` [4-NITROTOLUENE], the IC50 on Acetylcholinesterase [3] is 4.9 µM; on Acetylcholinesterase [4], 0.1 µM.
As for `Cc1cccc(C)c1` [M-XYLENE], the results for the IC50 against Acetylcholinesterase [3] and against Acetylcholinesterase [4] were 4.9 µM and 0.002 µM, respectively.
With `Cc1cccc(O)c1` [METACRESOL], the IC50 was 4.9 µM against Acetylcholinesterase [3] and 0.0457 µM against Acetylcholinesterase [4].
On the same counts, the results for `Cc1ccccc1C` [O-XYLENE] are 4.9 µM and 0.01 µM.
Take `Cc1ccc(C)cc1` [P-XYLENE]: the IC50 was 4.9 µM on Acetylcholinesterase [3] and 0.0398 µM on Acetylcholinesterase [4].
For the compound `Cc1ccccc1` [TOLUENE], the IC50 against Acetylcholinesterase [3] was 4.9 µM; on Acetylcholinesterase [4] it was 0.00525 µM.
On to `Cc1ccc(O)cc1` [p-CRESOL], for which the IC50 is 4.9 µM against Acetylcholinesterase [3] and 0.00182 µM on Acetylcholinesterase [4].

One may read the IC50 as the point on the concentration scale where inhibition reaches its midpoint.
